The supplement of paper PMC10307832

Legend:
Test in all cases: relative viability (nuclei count vs DMSO), 5 days (fraction); higher = more cells survive
Avagacestat + Luminespib = compound: NC(=O)[C@@H](CCC(F)(F)F)N(Cc1ccc(-c2ncon2)cc1F)S(=O)(=O)c1ccc(Cl)cc1 [Avagacestat] + CCNC(=O)c1noc(-c2cc(C(C)C)c(O)cc2O)c1-c1ccc(CN2CCOCC2)cc1 [Luminespib] (partner 0.01 µM)
Summary of the method: (§1)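 Lung cancer cell lines, seeded in 1536-well plates, were treated the following day by pin tool with a single drug or with five library-drug doses (not always all listed) in √10 steps on top of a fixed anchor-drug dose. Cells were fixed and nuclei stained in one step after 5 days, and nuclei were counted. Relative viability is the nuclei count for treated wells divided by that for vehicle wells, reported as medians of duplicate plates.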

Avagacestat + Olaparib = compound: NC(=O)[C@@H](CCC(F)(F)F)N(Cc1ccc(-c2ncon2)cc1F)S(=O)(=O)c1ccc(Cl)cc1 [Avagacestat] + O=C(c1cc(Cc2n[nH]c(=O)c3ccccc23)ccc1F)N1CCN(C(=O)C2CC2)CC1 [Olaparib] (partner 8 µM)
Summary of the method: as §1

Avagacestat + Decitabine = compound: NC(=O)[C@@H](CCC(F)(F)F)N(Cc1ccc(-c2ncon2)cc1F)S(=O)(=O)c1ccc(Cl)cc1 [Avagacestat] + Nc1ncn([C@H]2C[C@H](O)[C@@H](CO)O2)c(=O)n1 [Decitabine] (partner 2 µM)
Summary of the method: as §1

Avagacestat + Lapatinib = compound: NC(=O)[C@@H](CCC(F)(F)F)N(Cc1ccc(-c2ncon2)cc1F)S(=O)(=O)c1ccc(Cl)cc1 [Avagacestat] + CS(=O)(=O)CCNCc1ccc(-c2ccc3ncnc(Nc4ccc(OCc5cccc(F)c5)c(Cl)c4)c3c2)o1 [Lapatinib] (partner 2 µM)
Summary of the method: as §1

Row | Cell Line | relative viability (Avagacestat + Luminespib; first compound 0.08 µM) | relative viability (Avagacestat + Luminespib; first compound 0.253 µM) | relative viability (Avagacestat + Luminespib; first compound 0.8 µM) | relative viability (Avagacestat + Luminespib; first compound 2.53 µM) | relative viability (Avagacestat + Luminespib; first compound 8 µM) | relative viability (Avagacestat + Olaparib; first compound 0.08 µM) | relative viability (Avagacestat + Olaparib; first compound 0.253 µM) | relative viability (Avagacestat + Olaparib; first compound 0.8 µM) | relative viability (Avagacestat + Olaparib; first compound 2.53 µM) | relative viability (Avagacestat + Olaparib; first compound 8 µM) | relative viability (Avagacestat + Decitabine; first compound 0.08 µM) | relative viability (Avagacestat + Decitabine; first compound 0.253 µM) | relative viability (Avagacestat + Decitabine; first compound 0.8 µM) | relative viability (Avagacestat + Decitabine; first compound 2.53 µM) | relative viability (Avagacestat + Decitabine; first compound 8 µM) | relative viability (Avagacestat + Lapatinib; first compound 0.08 µM) | relative viability (Avagacestat + Lapatinib; first compound 0.253 µM) | relative viability (Avagacestat + Lapatinib; first compound 0.8 µM) | relative viability (Avagacestat + Lapatinib; first compound 2.53 µM) | relative viability (Avagacestat + Lapatinib; first compound 8 µM)
1 | NCI-H1651 | 1.09 | 0.931 | 0.726 | 0.719 | 0.852 | 0.219 | 0.188 | 0.179 | 0.19 | 0.19 | 0.636 | 0.665 | 0.734 | 0.611 | 0.607 | 1.11 | 1.03 | 0.883 | 0.762 | 0.672
2 | NCI-H650 | 0.91 | 0.965 | 0.92 | 0.831 | 0.818 | 0.399 | 0.524 | 0.403 | 0.427 | 0.412 | 0.33 | 0.324 | 0.317 | 0.328 | 0.367 | 1.2 | 1.04 | 1.03 | 1.1 | 0.835
3 | LOU-NH91 | 0.311 | 0.341 | 0.31 | 0.331 | 0.342 | 0.964 | 0.983 | 0.966 | 0.914 | 0.926 | 0.868 | 0.812 | 0.84 | 0.807 | 0.79 | 0.816 | 0.788 | 0.831 | 0.692 | 0.776
4 | H3255 | 1.02 | 0.951 | 0.941 | 1.05 | 0.847 | 0.626 | 0.663 | 0.609 | 0.621 | 0.572 | 0.619 | 0.731 | 0.678 | 0.591 | 0.542 | 0.262 | 0.259 | 0.3 | 0.244 | 0.276
5 | NCI-H460 | 0.0352 | 0.0325 | 0.0362 | 0.0361 | 0.0325 | 0.549 | 0.565 | 0.532 | 0.385 | 0.36 | 0.628 | 0.703 | 0.481 | 0.417 | 0.419 | 1.16 | 1.49 | 1.58 | 0.916 | 0.726
6 | SK-MES-1 | 0.863 | 0.865 | 0.724 | 0.616 | 0.788 | 0.905 | 0.772 | 0.88 | 0.667 | 0.646 | 0.367 | 0.415 | 0.373 | 0.329 | 0.311 | 0.476 | 0.496 | 0.531 | 0.444 | 0.423
7 | A-427 | 0.91 | 1.13 | 1.05 | 0.81 | 0.821 | 0.832 | 0.778 | 0.83 | 0.684 | 0.751 | 0.549 | 0.583 | 0.565 | 0.619 | 0.601 | 1.03 | 1.28 | 1.12 | 1.07 | 1.06
8 | HCC-44 | 1.21 | 1.36 | 1.14 | 0.885 | 1.25 | 1.04 | 1.05 | 1.07 | 1.01 | 1 | 0.991 | 0.944 | 0.985 | 0.968 | 0.986 | 1.23 | 0.893 | 1.17 | 1.03 | 0.98
9 | NCI-H1993 | 0.93 | 0.91 | 1.04 | 0.752 | 0.842 | 1.28 | 1.1 | 1.17 | 1.17 | 0.836 | 0.618 | 0.583 | 0.618 | 0.611 | 0.564 | 0.956 | 0.659 | 0.738 | 0.731 | 0.674
10 | NCI-H2023 | 1.06 | 0.862 | 0.952 | 0.514 | 0.762 | 0.751 | 0.52 | 0.479 | 0.493 | 0.475 | 0.255 | 0.257 | 0.288 | 0.221 | 0.218 | 0.979 | 0.89 | 0.822 | 0.617 | 0.7
11 | NCI-H1666 | 1.29 | 1.21 | 1.12 | 1.07 | 1.13 | 0.843 | 0.863 | 0.808 | 0.955 | 0.758 | 0.892 | 0.858 | 0.953 | 0.81 | 0.882 | 0.858 | 0.877 | 0.756 | 0.639 | 0.523
12 | LCLC-97TM1 | 0.849 | 1.03 | 0.837 | 0.705 | 0.718 | 0.533 | 0.463 | 0.555 | 0.309 | 0.307 | 0.25 | 0.214 | 0.229 | 0.217 | 0.203 | 0.771 | 1.29 | 0.977 | 0.703 | 0.86
13 | NCI-H1755 | 0.72 | 0.55 | 0.418 | 0.697 | 0.386 | 0.894 | 0.957 | 0.901 | 0.914 | 0.884 | 0.732 | 0.665 | 0.755 | 0.718 | 0.72 | 1.05 | 1.29 | 1.22 | 1.04 | 1.02
14 | EPLC-272H | 0.21 | 0.267 | 0.139 | 0.153 | 0.304 | 0.939 | 1.04 | 0.905 | 0.783 | 0.635 | 0.421 | 0.435 | 0.4 | 0.322 | 0.352 | 1.1 | 0.963 | 0.883 | 1.15 | 0.997
